Measurements published in article PMC10967972, “Different Coactivator Recruitment to Human PPARα/δ/γ Ligand-Binding Domains by Eight PPAR Agonists to Treat Nonalcoholic Fatty Liver Disease” (Biomedicines, 2024).
Like-named read-outs stand apart in the source and are kept apart here.

What was measured:
Format in all cases: biochemical
[1] = molecular target: T1, human PPARδ-LBD (Homo sapiens, UniProt Q03181); experiment: TR-FRET coactivator recruitment assay, PPARδ-LBD; conditions: for EC50: Buffer A
T1 construct: PPARδ-LBD (AAs 170–441); made in house
T1 sequence (Q03181 170-441): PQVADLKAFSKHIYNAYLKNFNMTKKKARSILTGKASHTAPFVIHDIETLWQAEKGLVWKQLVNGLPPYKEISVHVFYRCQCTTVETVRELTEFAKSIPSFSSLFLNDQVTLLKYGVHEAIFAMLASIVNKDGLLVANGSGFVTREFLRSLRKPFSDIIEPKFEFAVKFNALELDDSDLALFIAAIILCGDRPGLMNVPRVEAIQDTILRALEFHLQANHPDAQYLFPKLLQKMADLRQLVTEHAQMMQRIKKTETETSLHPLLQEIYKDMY

[2] = molecular target: T2, human PPARα-LBD (Homo sapiens, UniProt Q07869); experiment: TR-FRET coactivator recruitment assay, PPARα-LBD
T2 construct: Human PPARα-LBD [amino acids (AAs) 200–468]; made in house
T2 sequence (Q07869 200-468): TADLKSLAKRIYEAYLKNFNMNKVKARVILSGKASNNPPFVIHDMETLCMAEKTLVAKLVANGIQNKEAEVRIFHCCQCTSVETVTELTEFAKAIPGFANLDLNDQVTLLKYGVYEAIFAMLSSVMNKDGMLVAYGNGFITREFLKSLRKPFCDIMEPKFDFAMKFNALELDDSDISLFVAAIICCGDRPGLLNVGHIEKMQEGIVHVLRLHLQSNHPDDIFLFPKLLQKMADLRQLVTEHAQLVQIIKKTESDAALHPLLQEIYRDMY

[3] = molecular target: T3, human PPARγ-LBD (Homo sapiens, UniProt P37231); experiment: TR-FRET coactivator recruitment assay, PPARγ-LBD; conditions: for EC50: Buffer A
T3 construct: PPARγ-LBD (AAs 203–477 in isoform 1); made in house
T3 sequence (P37231 203-477 isoform P37231-2): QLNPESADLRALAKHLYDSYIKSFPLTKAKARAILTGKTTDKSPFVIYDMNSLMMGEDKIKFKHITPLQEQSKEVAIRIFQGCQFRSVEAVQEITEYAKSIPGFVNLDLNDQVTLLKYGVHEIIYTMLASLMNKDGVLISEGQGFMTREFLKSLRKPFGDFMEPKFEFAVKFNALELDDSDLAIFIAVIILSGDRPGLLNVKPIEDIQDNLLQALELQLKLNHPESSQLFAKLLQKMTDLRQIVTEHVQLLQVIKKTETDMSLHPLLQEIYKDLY

[4] = evaluated based on EC50 values, PGC, PGC1α, SRC, SRC1, TRAP, TRAP220

- EC50 ([1]; CBP peptide recruitment, read-out: PPARδ CBP EC50): 8.64 µM
- EC50 ([1]; PGC1α peptide recruitment, read-out: PPARδ PGC1α EC50): 4.75 µM
- EC50 ([1]; SRC1 peptide recruitment, read-out: PPARδ SRC1 EC50): 14.9 µM
- EC50 ([1]; TRAP220 peptide recruitment, read-out: PPARδ TRAP220 EC50): 7.48 µM
- Approximate potency order in the recruitment of four coactivators, PPARδ [1, 4]: PGC>CBP=TRAP>SRC
- recruitment of coactivators to PPARδ-LBD (in words) ([1]; four coactivator peptides): effective
- Emax ([1]; read-out: PPARδ CBP % of GW501516 max response): 74.6%
- Emax ([1]; read-out: PPARδ PGC1α % of GW501516 max response): 91.1%
- Emax ([1]; read-out: PPARδ SRC1 % of GW501516 max response): 58.6%
- Emax ([1]; read-out: PPARδ TRAP220 % of GW501516 max response): 77.3%
- Approximate potency order in the recruitment of four coactivators, PPARα [2, 4]: CBP>PGC=SRC>TRAP
- Emax ([2]; read-out: PPARα CBP % of GW7647 max response): 96.7%
- Emax ([2]; read-out: PPARα PGC1α % of GW7647 max response): 74.5%
- Emax ([2]; read-out: PPARα SRC1 % of GW7647 max response): 101%
- Emax ([2]; read-out: PPARα TRAP220 % of GW7647 max response): 102%
- EC50 ([3]; CBP peptide recruitment, read-out: PPARγ CBP EC50): 5.58 µM
- EC50 ([3]; PGC1α peptide recruitment, read-out: PPARγ PGC1α EC50): 8.02 µM
- EC50 ([3]; SRC1 peptide recruitment, read-out: PPARγ SRC1 EC50): 13.8 µM
- EC50 ([3]; TRAP220 peptide recruitment, read-out: PPARγ TRAP220 EC50): 5.59 µM
- Approximate potency order in the recruitment of four coactivators, PPARγ [3, 4]: CBP=TRAP>PGC>SRC
- Emax ([3]; read-out: PPARγ CBP % of GW1929 max response): 80.3%
- Emax ([3]; read-out: PPARγ PGC1α % of GW1929 max response): 50.8%
- Emax ([3]; read-out: PPARγ SRC1 % of GW1929 max response): 27.7%
- Emax ([3]; read-out: PPARγ TRAP220 % of GW1929 max response): 82.5%
Structure (SMILES): CC[C@@H](Oc1cccc(CN(CCCOc2ccc(OC)cc2)c2nc3ccccc3o2)c1)C(=O)O [Pemafibrate, pemafibrate]
